Here are results for 20 molecules from patent publication US12384808B2, “Modulators of TNF-α activity” (Forward Therapeutics, Inc., priority 2022, dated 2025).

Sequence of TNFα (P01375 77-233 limits assumed): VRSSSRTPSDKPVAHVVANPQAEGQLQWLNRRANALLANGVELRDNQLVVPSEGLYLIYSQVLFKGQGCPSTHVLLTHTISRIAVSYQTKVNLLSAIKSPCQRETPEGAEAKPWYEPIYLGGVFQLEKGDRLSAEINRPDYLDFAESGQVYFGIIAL

The assay has as its target TNFα (Homo sapiens, UniProt P01375). Kind of assay: TNFα Induced HEK Blue Cellular Assay. The conditions noted are these: HEK Blue TNFα reporter cells, TNFα 100 pg/ml, 24 hrs at 37° C., secreted alkaline phosphatase (QUANTI-Blue) read at 620 nm; read-out: IC50 value. Format: cell-based. The protocol:
TNFα Induced HEK Blue Cellular Assay
Test articles were diluted in DMSO and serially diluted into 384 well assay plate (Corning 3765), at final concentrations ranging from […] to 0.5 nM. HEK Blue™ TNFα reporter cells were added at a final density of 10,000 cell per well in assay media [DMEM (Gibco, cat #21063-029), 10% fetal bovine serum (ExcelBio, cat #FND500), 1% Penicillin-Streptomycin (Solarbio, cat #P1400-100]. TNFα (R&D 210-TA-020/CF) was then added to the assay plate at a final concentration of 100 pg/ml. This plate was then incubated for 24 hrs at 37° C. and 5% CO2. Secreted alkaline phosphatase expression was then measured using QUANTI-Blue™ (Invivogen), according to manufacturer instructions and read on an Envision microplate reader at 620 nm.
Inhibition data for test compound over a range of concentration was plotted as percentage inhibition of the test compound (100%=maximum inhibition). IC50 values were determined after correcting for background [(sample read−mean of low control)/(mean of high control−mean of low control)] where by the low control is DMSO without stimulation and high control is DMSO with stimulation. The IC50 is defined as the concentration of test compound which produces 50% inhibition and was quantified using the 4 parameter logistic equation to fit the data.
For the molecule `CN1C(=O)c2cccc(OC(F)F)c2[C@H]2C[C@@H]1c1nc3ccc(-c4ccc(OCP(C)(C)=O)nc4)cc3n12` [Example 7, (1R,11R)-18-(difluoromethoxy)-5-{6-[(dimethylphosphoryl)methoxy]pyridin-3-yl}-12-methyl-2,9,12-triazapentacyclo[9.8.1.0^{2,10}.0^{3,8}.0^{14,19}]icosa-3(8),4,6,9,14(19),15,17-heptaen-13-one], the IC50 was less than 100 nM.
As to `CN1C(=O)c2cccc(OC(F)F)c2[C@H]2C[C@@H]1c1nc3ccc(-c4cnc(P(C)(C)=O)nc4)cc3n12` [Example 8, (1R,11R)-18-(difluoromethoxy)-5-[2-(dimethylphosphoryl)pyrimidin-5-yl]-12-methyl-2,9,12-triazapentacyclo[9.8.1.0^{2,10}.0^{3,8}.0^{14,19}]icosa-3(8),4,6,9,14(19),15,17-heptaen-13-one], the IC50 was in the range of 100 to 1000 nM.
Take `CN1C(=O)c2cccc(OC(F)F)c2[C@H]2C[C@@H]1c1nc3ccc(-c4cnc(OCP(C)(C)=O)nc4)cc3n12` [Example 9, (1R,11R)-18-(difluoromethoxy)-5-{2-[(dimethylphosphoryl)methoxy]pyrimidin-5-yl}-12-methyl-2,9,12-triazapentacyclo[9.8.1.0^{2,10}.0^{3,8}.0^{14,19}]icosa-3(8),4,6,9,14(19),15,17-heptaen-13-one]: the IC50 lay in the range of 100 to 1000 nM.
With `CN1C(=O)c2cccc(OC(F)F)c2[C@H]2C[C@@H]1c1nc3ccc(-c4cnc(OCP(C)(C)=O)c(F)c4)cc3n12` [Example 10, (1R,11R)-18-(difluoromethoxy)-5-{6-[(dimethylphosphoryl)methoxy]-5-fluoropyridin-3-yl}-12-methyl-2,9,12-triazapentacyclo [9.8.1.0^{2,10}.0^{3,8}.0^{14,19}]icosa-3(8),4,6,9,14(19),15,17-heptaen-13-one], the IC50 was less than 100 nM.
In the case of `CP(C)(=O)COc1ccc(-c2ccc3nc4n(c3c2)[C@@H]2C[C@H]4NC(=O)c3cccc(OC(F)F)c32)cn1` [Example 11, (1R,11R)-18-(difluoromethoxy)-5-{6-[(dimethylphosphoryl)methoxy]pyridin-3-yl}-2,9,12-triazapentacyclo[9.8.1.0^{2,10}.0^{3,8}.0^{14,19}]icosa-3(8),4,6,9,14(19),15,17-heptaen-13-one] it was 1000 to 10000 nM; in that of `CP(C)(=O)COc1ncc(-c2ccc3nc4n(c3c2)[C@@H]2C[C@H]4NC(=O)c3cccc(OC(F)F)c32)cn1` [Example 12, (1R,11R)-18-(difluoromethoxy)-5-(2-[(dimethylphosphoryl)methoxy]pyrimidin-5-yl)-2,9,12-triazapentacyclo[9.8.1.0^{2,10}.0^{3,8}.0^{14,19}]icosa-3(8),4,6,9,14(19),15,17-heptaen-13-one], 1000 to 10000 nM; in that of `CN1C(=O)c2cccc(OC(F)F)c2[C@H]2C[C@@H]1c1nc3ccc(-c4ccc(P(C)(C)=O)cc4)cc3n12` [Example 13, (1R,11R)-18-(difluoromethoxy)-5-[4-(dimethylphosphoryl)phenyl]-12-methyl-2,9,12-triazapentacyclo[9.8.1.0^{2,10}.0^{3,8}.0^{14,19}]icosa-3(8),4,6,9,14(19),15,17-heptaen-13-one], less than 100 nM.
In the case of `CN1C(=O)c2cccc(OC(F)F)c2[C@H]2C[C@@H]1c1nc3ccc(-c4ccc(P(C)(C)=O)c(F)c4)cc3n12` [Example 14, (1R,11R)-18-(difluoromethoxy)-5-[4-(dimethylphosphoryl)-3-fluorophenyl]-12-methyl-2,9,12-triazapentacyclo[9.8.1.0^{2,10}.0^{3,8}.0^{14,19}]icosa-3(8),4,6,9,14(19),15,17-heptaen-13-one] it was less than 100 nM; in that of `[2H]C([2H])([2H])N1C(=O)c2cccc(OC(F)F)c2[C@H]2C[C@@H]1c1nc3ccc(-c4ccc(OCP(C)(C)=O)nc4)cc3n12` [Example 15, (7R,14R)-1-(difluoromethoxy)-11-(6-((dimethylphosphoryl)methoxy)pyridin-3-yl)-6-(methyl-d3)-6,7-dihydro-7,14-methanobenzo[f]benzo[4,5]imidazo[1,2-a][1,4]diazocin-5(14H)-one], less than 100 nM.
For `CN1C(=O)c2cccc(OC(F)F)c2[C@H]2C[C@@H]1c1nc3ccc(-c4cnc(NCP(C)(C)=O)c(F)c4)cc3n12` [Example 16, (1R,11R)-18-(difluoromethoxy)-5-(6-{[(dimethylphosphoryl)methyl]amino}-5-fluoropyridin-3-yl)-12-methyl-2,9,12-triazapentacyclo[9.8.1.0^{2,10}.0^{3,8}.0^{14,19}]icosa-3(8),4,6,9,14(19),15,17-heptaen-13-one], the 50% inhibitory concentration (IC50) was less than 100 nM.
The same measure for `[2H]C([2H])([2H])N1C(=O)c2cccc(OC(F)F)c2[C@H]2C[C@@H]1c1nc3ccc(-c4ccc(P(C)(C)=O)nc4)cc3n12` [Example 17, (7R,14R)-1-(difluoromethoxy)-11-(6-(dimethylphosphoryl)pyridin-3-yl)-6-(methyl-d3)-6,7-dihydro-7,14-methanobenzo[f]benzo[4,5]imidazo[1,2-a][1,4]diazocin-5(14H)-one]: less than 100 nM; for `CN1C(=O)c2cccc(OC(F)F)c2[C@H]2C[C@@H]1c1nc3ccc(-c4ccc(OCP(C)(C)=O)c(F)c4)cc3n12` [Example 18, (1R,11R)-18-(difluoromethoxy)-5-{4-[(dimethylphosphoryl)methoxy]-3-fluorophenyl}-12-methyl-2,9,12-triazapentacyclo[9.8.1.0^{2,10}.0^{3,8}.0^{14,19}]icosa-3(8),4,6,9,14(19),15,17-heptaen-13-one]: less than 100 nM.
Consider `CCN1C(=O)c2cccc(OC(F)F)c2[C@H]2C[C@@H]1c1nc3ccc(-c4ccc(P(C)(C)=O)nc4)cc3n12` [Example 19, (1R,11R)-18-(difluoromethoxy)-5-[6-(dimethylphosphoryl)pyridin-3-yl]-12-ethyl-2,9,12-triazapentacyclo[9.8.1.0^{2,10}.0^{3,8}.0^{14,19}]icosa-3(8),4,6,9,14(19),15,17-heptaen-13-one], for which the IC50 is less than 100 nM.
In the case of `CN1C(=O)c2cccc(OC(F)F)c2[C@H]2C[C@@H]1c1nc3ccc(-c4cnn(CP(C)(C)=O)c4)cc3n12` [Example 21, (1R,11R)-18-(difluoromethoxy)-5-{1-[(dimethylphosphoryl)methyl]pyrazol-4-yl}-12-methyl-2,9,12-triazapentacyclo[9.8.1.0^{2,10}.0^{3,8}.0^{14,19}]icosa-3(8),4,6,9,14(19),15,17-heptaen-13-one] it was 100 to 1000 nM.
In the case of `CN1C(=O)c2cccc(OC(F)F)c2[C@H]2C[C@@H]1c1nc3ccc(-c4ccc(CP(C)(C)=O)nc4)cc3n12` [Example 22, (1R,11R)-18-(difluoromethoxy)-5-{6-[(dimethylphosphoryl)methyl]pyridin-3-yl}-12-methyl-2,9,12-triazapentacyclo[9.8.1.0^{2,10}.0^{3,8}.0^{14,19}]icosa-3(8),4,6,9,14(19),15,17-heptaen-13-one] it was less than 100 nM.
The same measure for `CN1C(=O)c2cccc(OC(F)F)c2[C@H]2C[C@@H]1c1nc3ccc(-c4ccc(NCP(C)(C)=O)nc4)cc3n12` [Example 23, (1R,11R)-18-(difluoromethoxy)-5-(6-{[(dimethylphosphoryl)methyl]amino}pyridin-3-yl)-12-methyl-2,9,12-triazapentacyclo[9.8.1.0^{2,10}.0^{3,8}.0^{14,19}]icosa-3(8),4,6,9,14(19),15,17-heptaen-13-one]: less than 100 nM.
On to `[2H]C([2H])([2H])N1C(=O)c2cccc(OC(F)F)c2[C@H]2C[C@@H]1c1nc3ccc(-c4ccc(P(C)(C)=O)c(F)c4)cc3n12` [Example 24, (7R,14R)-1-(difluoromethoxy)-11-(4-(dimethylphosphoryl)-3-fluorophenyl)-6-(methyl-d3)-6,7-dihydro-7,14-methanobenzo[f]benzo[4,5]imidazo[1,2-a][1,4]diazocin-5(14H)-one], for which the IC50 is less than 100 nM.
Turning to `CN1C(=O)c2cccc(OC(F)F)c2[C@H]2C[C@@H]1c1nc3ccc(-c4cnc(OCP(C)(C)=O)s4)cc3n12` [Example 25, (1R,11R)-18-(difluoromethoxy)-5-{2-[(dimethylphosphoryl)methoxy]-1,3-thiazol-5-yl}-12-methyl-2,9,12-triazapentacyclo[9.8.1.0^{2,10}.0^{3,8}.0^{14,19}]icosa-3(8),4,6,9,14(19),15,17-heptaen-13-one], the IC50 was less than 100 nM.
In the case of `CN1C(=O)c2cccc(OC(F)F)c2[C@H]2C[C@@H]1c1nc3ccc(-c4ccc(P(C)(C)=O)cc4Cl)cc3n12` [Example 27, (1R,11R)-5-[2-chloro-4-(dimethylphosphoryl)phenyl]-18-(difluoromethoxy)-12-methyl-2,9,12-triazapentacyclo[9.8.1.0^{2,10}.0^{3,8}.0^{14,19}]icosa-3(8),4,6,9,14(19),15,17-heptaen-13-one] it was less than 100 nM; in that of `CN1C(=O)c2cccc(OC(F)F)c2[C@H]2C[C@@H]1c1nc3ccc(-c4ccc(P(C)(C)=O)cc4F)cc3n12` [Example 28, (1R,11R)-18-(difluoromethoxy)-5-[4-(dimethylphosphoryl)-2-fluorophenyl]-12-methyl-2,9,12-triazapentacyclo[9.8.1.0^{2,10}.0^{3,8}.0^{14,19}]icosa-3(8),4,6,9,14(19),15,17-heptaen-13-one], less than 100 nM.
